Data reported in US9114149B2, “[CU(thp)4]n[X]-n compounds for the treatment of a broad range of human solid tumors, including refractory tumors” (Universita Degli Studi Di Padova, priority 2011, dated 2015).
Marks after values point to notes of the source that are not given here.

Experiments:
C57BL mice = experiment: Acute toxicity tests in healthy C57BL mice; type: in vivo; settings: observed 24 hrs
Experimental: (§1) The acute toxicity was assessed by treating BALB/c or C57BL mice with a single intraperitoneal (i.p.) or endovenous (e.v.) administration of different amounts, i.e. 3.125, 6.25, 12.5, 25, 50, 100 and 200 mg/kg of tested compounds.
(§2) To preliminarily establish the toxicity profile of CP, acute and repeat-dose toxicity studies were performed in BALB/c mice and in C57BL mice.

[1] = tested on: human colon adenocarcinoma cells resistant (HCT-116 OXP) to OXP
BALB/c mice = experiment: Acute toxicity tests in healthy BALB/c mice; type: in vivo; settings: for LD50: BALB/c mice, observed 24 hrs
Experimental: as §1, §2

[2] = tested on: CDDP resistant and OXP resistant human cancer cells

F[P-](F)(F)(F)(F)F.OC[P+](CO)(CO)[Cu-3]([P+](CO)(CO)CO)([P+](CO)(CO)CO)[P+](CO)(CO)CO [CP, [Cu(thp)4][PF6]]
LD50 (C57BL mice; single e.v. administration): 115^b mg/kg | LD50 (C57BL mice; single i.p. administration): 125^a mg/kg | IC50 ([1]; HCT-116 OXP (OXP resistant), MTT test, 72 h, probit analysis): 1.9 ± 0.7 µM | R.F. (Resistant factor) ([1]; IC50 resistant/parent line: HCT-116 OXP / HCT-116): 1.4 | LD50 relative to that recorded with CDDP (BALB/c mice; BALB/c and C57BL mice (Table 5)): about one order of magnitude higher | LD50 (BALB/c mice; single e.v. administration): 135^b mg/kg | LD50 (BALB/c mice; single i.p. administration): 150^a mg/kg | IC50 fold lower than the reference metallodrugs ([2]; Table 2 cell lines, maximum): up to 15 fold | antitumor activity levels on sensitive versus resistant cell lines ([2]; sensitive and resistant cell line pairs): very similar
